# Source: US6455528B1, “Piperazine compounds and medicinal use thereof” (Mitsubishi Pharma Corporation, priority 1997, dated 2002)
# Structures can show the parent of a compound that is named as a salt.
row,Compound,melting point
1,"CCC(CC)(NC(C)=O)c1ccc(CN2CCN(c3ccccc3)CC2)cc1 [Example 56, N-(1-Ethyl-1-(4-((4-phenylpiperazin-1-yl)methyl)phenyl)propyl)acetamide]",139 to 140 °C
2,"CC(=O)NC1(c2ccc(CN3CCN(c4ccc(F)cc4)CC3)cc2)CC1 [Example 65, N-(1-(4-((4-(4-Fluorophenyl)piperazin-1-yl)methyl)phenyl)cyclopropyl)acetamide]",124 to 126 °C
3,"CC(=O)NC1(c2ccc(CN3CCN(c4nccs4)CC3)cc2)CC1 [Example 100, N-(1-(4-((4-(Thiazol-2-yl)piperazin-1-yl)methyl)phenyl)cyclopropyl)acetamide]",184 to 185 °C
4,"CCC(=O)NCc1ccc(CN2CCN(c3ccccc3)CC2)cc1 [Example 4, N-(4-((4-Phenylpiperazin-1-yl)methyl)phenylmethyl)propionamide]",140 to 141 °C
5,"NCc1ccc(CN2CCN(c3ncccn3)CC2)cc1 [Example 74, 2-(4-(4-(Aminomethyl)phenylmethyl)-piperazin-1-yl)pyrimidine]",70 to 72 °C
6,"CC(=O)NC1(c2ccc(CN3CCN(c4cccc(F)n4)CC3)cc2)CC1 [Example 117, N-(1-(4-((4-(6-Fluoropyridin-2-yl)piperazin-1-yl)methyl)phenyl)cyclopropyl)acetamide]",135 to 136 °C
7,"CC(=O)N[C@@H](C)c1ccc(CN2CCN(c3ccc(F)cc3)CC2)cc1 [Example 121, (S)-N-(1-(4-((4-(4-Fluorophenyl)piperazin-1-yl)methyl)phenyl)ethyl)acetamide]",114 to 115 °C
8,"CC(=O)NCc1ccc(CN2CCN(c3ccc(F)cc3NC(C)=O)CC2)cc1 [Example 39, N-(4-((4-(2-Acetylamino-4-fluorophenyl)piperazin-1-yl)methyl)phenylmethyl)acetamide]",148 to 149.5 °C
9,"COc1ccccc1N1CCN(C(C)c2ccc(CNC(C)=O)cc2)CC1 (stereo not drawn) (as salt: hydrochloride) [Example 19, N-(4-(1-(4-(2-Methoxyphenyl)piperazin-1-yl)ethyl)phenylmethyl)acetamide Dihydrochloride]",220 to 223 °C (dec.)
10,"CCOc1cc(OCC)nc(N2CCN(Cc3ccc(CNC(C)=O)cc3)CC2)n1 [Example 108, N-(4-((4-(4,6-Diethoxypyrimidin-2-yl)piperazin-1-yl)methyl)phenylmethyl)acetamide]",119 to 120 °C
11,"CC(=O)NC1(c2ccc(CN3CCN(c4ccc(F)cc4F)CC3)cc2)CC1 [Example 66, N-(1-(4-((4-(2,4-Difluorophenyl)-piperazin-1-yl)methyl)phenyl)cyclopropyl)acetamide]",124 to 125 °C
12,"CC(=O)NCc1ccc(CN2CCN(c3cc(Cl)nc(Cl)n3)CC2)cc1 [Example 89, N-(4-((4-(2,6-Dichloropyrimidin-4-yl)piperazin-1-yl)methyl)phenylmethyl)acetamide]",165 to 166 °C
13,"CC(=O)NCc1ccc(CN2CCN(c3ccc([N+](=O)[O-])cc3)CC2)cc1 [Example 33, N-(4-((4-(4-Nitrophenyl)piperazin-1-yl)methyl)phenylmethyl)acetamide]",151.5 to 153.5 °C
14,"CC(=O)NCc1ccc(CN2CCN(c3cc(F)nc(F)n3)CC2)cc1 [Example 79, N-(4-((4-(2,6-Difluoropyrimidin-4-yl)piperazin-1-yl)methyl)phenylmethyl)acetamide]",127 to 128 °C
15,"CC(=O)NCc1ccc(CN2CCN(c3ccc(NC(C)=O)cc3)CC2)cc1 [Example 35, N-(4-((4-(4-Acetamidophenyl)piperazin-1-yl)methyl)phenylmethyl)acetamide]",225 to 226 °C
16,"CC(=O)NCc1ccc(CN2CCN(c3ccc(O)cc3)CC2)cc1 (as salt: hydrochloride) [Example 36, N-(4-((4-(4-Hydroxyphenyl)piperazin-1-yl)methyl)phenylmethyl)acetamide Dihydrochloride]",218 to 220 °C
17,"COc1cc(OC)nc(N2CCN(Cc3ccc(C(C)(C)NC(C)=O)cc3)CC2)n1 [Example 96, N-(1-(4-((4-(4,6-Dimethoxypyrimidin-2-yl)piperazin-1-yl)methyl)phenyl)-1-methylethyl)acetamide]",199 to 202 °C
18,"CC(=O)NCc1ccc(CN2CCN(c3ccc(F)cc3N)CC2)cc1 [Example 38, N-(4-((4-(2-Amino-4-fluorophenyl)piperazin-1-yl)methyl)phenylmethyl)acetamide]",139 to 140 °C
19,"CC(=O)NCc1ccc(CN2CCN(c3ccc(F)cc3)CC2)cc1Cl [Example 26, N-(2-Chloro-4-((4-(4-fluorophenyl)-piperazin-1-yl)methyl)phenylmethyl)acetamide]",141 to 142 °C
20,"COc1cc(N(C)C)nc(N2CCN(Cc3ccc(CNC(C)=O)cc3)CC2)n1 [Example 110, N-(4-((4-(4-Dimethylamino-6-methoxypyrimidin-2-yl)piperazin-1-yl)methyl)phenylmethyl)acetamide]",115 to 118 °C
21,"CC(=O)NCc1ccc(CN2CCN(c3ccncc3)CC2)cc1 [Example 84, N-(4-((4-(Pyridin-4-yl)piperazin-1-yl)methyl)phenylmethyl)acetamide]",164 to 166 °C

row,Compound,melting point
1,"CC(=O)NCc1ccc(CN2CCN(c3nccc(Cl)n3)CC2)cc1 [Example 97, N-(4-((4-(4-chloropyrimidin-2-yl)piperazin-1-yl)methyl)phenylmethyl)acetamide]",122 to 124 °C
2,"CC(=O)NCc1ccc(CN2CCN(c3nc(F)cc(F)n3)CC2)cc1 [Example 78, N-(4-((4-(4,6-Difluoropyrimidin-2-yl)piperazin-1-yl)methyl)phenylmethyl)acetamide]",128 to 129 °C
3,"COc1ccnc(N2CCN(Cc3ccc(C(C)(C)NC(C)=O)cc3)CC2)n1 [Example 106, N-(1-(4-((4-(4-Methoxypyrimidin-2-yl)piperazin-1-yl)methyl)phenyl)-1-methylethyl)acetamide]",160 to 162 °C
4,"CC(=O)NCc1ccc(CN2CCN(c3nc(Cl)cc(Cl)n3)CC2)cc1 [Example 80, N-(4-((4-(4,6-Dichloropyrimidin-2-yl)piperazin-1-yl)methyl)phenylmethyl)acetamide]",139 to 140 °C
5,CC(=O)NCc1ccc(CN2CCN(c3ccc(F)cc3Br)CC2)cc1 (as salt: hydrochloride),231 to 235 °C
6,"CC(=O)NCc1ccc(CN2CCN(c3ccccc3)CC2)cc1N [Example 22, N-(2-Amino-4-((4-phenylpiperazin-1-yl)methyl)phenylmethyl)acetamide]",148 to 149 °C
7,"CC(=O)NCc1ccc(CN2CCN(c3nccs3)CC2)cc1 (as salt: hydrochloride) (hydrate or solvate) [Example 81, N-(4-((4-(Thiazol-2-yl)piperazin-1-yl)methyl)phenylmethyl)acetamide Hydrochloride 1/2 Hydrate]",120 to 121 °C
8,"CC(=O)NC(C)(C)c1ccc(C(C)N2CCN(c3ccccc3)CC2)cc1 (stereo not drawn) [Example 62, N-(1-(4-(1-(4-Phenylpiperazin-1-yl)ethyl)-phenyl)-1-methylethyl)acetamide]",169 to 171 °C
9,"CC(=O)NC1(c2ccc(CN3CCN(c4ncccn4)CC3)cc2)CC1 [Example 71, N-(1-(4-((4-(Pyrimidin-2-yl)piperazin-1-yl)methyl)phenyl)cyclopropyl)acetamide]",145 to 146 °C
10,"CC(=O)NC1(c2ccc(C(C)N3CCN(c4ncccn4)CC3)cc2)CC1 (stereo not drawn) [Example 70, N-(1-(4-(1-(4-(Pyrimidin-2-yl)piperazin-1-yl)ethyl)phenyl)cyclopropyl)acetamide]",124 to 125 °C
11,CC(=O)NCc1ccc(CN2CCN(c3ccc(F)cc3C)CC2)cc1 (as salt: hydrochloride),115 to 117 °C
12,"CC(=O)NCc1ccc(CN2CCN(c3ccc(F)cc3)CC2)cc1[N+](=O)[O-] [Example 23, N-(4-((4-(4-Fluorophenyl)piperazin-1-yl)methyl)-2-nitrophenylmethyl)acetamide]",112 to 114 °C
13,"CC(=O)NC(C)c1ccc(CN2CCN(c3ncccn3)CC2)cc1 (stereo not drawn) [Example 69, N-(1-(4-((4-(Pyrimidin-2-yl)piperazin-1-yl)methyl)phenyl)ethyl)acetamide]",124 to 126 °C
14,"CC(=O)NC1(c2ccc(CN3CCN(c4ccccn4)CC3)cc2)CC1 [Example 118, N-(1-(4-((4-(Pyridin-2-yl)piperazin-1-yl)methyl)phenyl)cyclopropyl)acetamide]",145 to 147 °C
15,CC(=O)NCc1ccc(C(C)N2CCN(c3ccccc3)CC2)cc1 (stereo not drawn) (as salt: hydrochloride),233 to 235 °C (dec.)
16,"CC(=O)NC(C)(C)c1ccc(CN2CCN(c3nccs3)CC2)cc1 [Example 94, N-(1-Methyl-1-(4-((4-(thiazol-2-yl)piperazin-1-yl)methyl)phenyl)ethyl)acetamide]",118 to 120 °C
17,"CC(=O)NCc1ccc(CN2CCN(c3cccc(C)c3)CC2)cc1 [Example 9, N-(4-((4-(3-Methylphenyl)piperazin-1-yl)methyl)phenylmethyl)acetamide]",80 to 81 °C
18,"CCC(NC(C)=O)c1ccc(CN2CCN(c3ccc(F)cc3F)CC2)cc1 (stereo not drawn) [Example 55, N-(1-(4-((4-(2,4-Difluorophenyl)piperazin-1-yl)methyl)phenyl)propyl)acetamide]",137 to 138 °C
19,"CC(=O)NCc1c(C)cc(CN2CCN(c3ccc(F)cc3)CC2)cc1C [Example 18, N-(4-(4-(4-Fluorophenyl)piperazin-1-ylmethyl)-2,6-dimethylphenylmethyl)acetamide]",163 to 164 °C
20,"NCc1ccc(CN2CCN(c3ccccc3)CC2)cc1 [Example 2, 4-((4-(Aminomethyl)phenyl)methyl)-1-phenylpiperazine]",68 to 70 °C
21,"CC(=O)NC(C)(C)c1ccc(C(C)N2CCN(c3ccc(F)cc3)CC2)cc1 (stereo not drawn) [Example 60, N-(1-(4-(1-(4-(4-Fluorophenyl)piperazin-1-yl)ethyl)phenyl)-1-methylethyl)acetamide]",156 to 157 °C
